Patent publication US20190152905A1 (priority 2016, published 2019)
Where “and” joins values, the source holds several entries; their conditions need not be identical. Identical values can stand only once.

Experiments:
[1] = Body weight and body weight gain of high-fat diet mice; assay type: in vivo, mice (C57BL/6); details: for Body weight / Body weight gain: high-fat diet mice, mean
Method: (§1) Using 8-week-old male mice (C57BL/6) (purchased from CoreTech), anti-diabetic candidate materials were evaluated using a GTT (Glucose Tolerance Test) that is a typical method for diagnosis of diabetes.
(§2) Mice were housed at a temperature of 22±2° C. and a relative humidity of 55-60% with 12-hr light/12-hr dark cycles. Five animals were allotted to each group, and mice from the same mother were grouped into one group, because male mice tend to fight together.
(§3) As feed, high-fat diet (60% of calories from fat; Research Diet Inc., New Brunswick, N.J.) and water were fed ad libitum for 10 weeks. Herein, the water fed contained the samples prepared in Examples 1-2 (3), 2-1, 2-4-1, 2-4-2 and 2-5. As a positive control, metformin (M-072, Sigma) (250 mg/kg) was used, and as a control, the samples prepared in Comparative Examples 1-1, 2-3-2, 2-5-1, 2-5-2 and 2-6 were used.
(§4) For reference, each of the samples prepared in Examples 2-4-1, 2-4-2 and 2-5 was set to the amount to be taken by an adult (60 kg) for 3 days, and the amount was converted into a mouse dose (12-fold/kg, see the US NIH guidance), thereby preparing animal feed. Namely, the amount to be taken by an adult (60 kg) for 3 days is 180-day dose/kg, which corresponds to 15-day dose/kg for mice. Thus, the amount corresponds to 750-day dose/mouse (20 g), because the average weight of mice is about 20 g. Thus, one mouse was allowed to take 1/750 of the prepared sample each day.
(§5) In addition, each of the samples prepared in Examples 1-2 (3) and 2-1 was set to the amount to be taken by an adult (60 kg) for 2 days, and the amount was converted into a mouse dose (12-fold/kg, see the US NIH guidance), thereby preparing animal feed. Namely, the amount to be taken by an adult (60 kg) for 2 days is 120-day dose/kg, which corresponds to 10-day dose/kg for mice. Thus, the amount corresponds to 500-day dose/mouse (20 g), because the average weight of mice is about 20 g. Thus, one mouse was allowed to take 1/500 of the prepared sample each day.
The diet intake and the body weight gain were measured weekly for 8 weeks. The body weight and the diet intake were measured immediately before first drug administration, and then measured at one-week intervals.
(§6) Meanwhile, experimental analysis results were expressed as mean±S.E.M., and the significance between test groups was statistically processed using Student T-TEST, and then the significance was verified at *P<0.05.

[2] = system: male mice (C57BL/6), high-fat diet; assay: Glucose tolerance test (GTT) at 8 weeks of high-fat diet feeding; assay type: in vivo
Method: as §1, §2, §3, §4, §5
At 8 weeks of high-fat diet feeding, a glucose tolerance test (GTT) was performed. For 8 hours for the test, mice were fasted. Then, blood was sampled from the tail vein, and initial blood glucose levels were measured with a blood glucose meter (AUTO-CHEK, Diatech Korea). Then, glucose was administered intraperitoneally to the mice at a concentration of 1 g/kg, and after 30 min, 60 min, 90 min and 120 min, blood was sampled from the mice, followed by measurement of blood glucose levels (each group consisting of five animals).
as §6

plasma [3] = assay: Anticoagulant activity: prothrombin time (PT), Sysmex CA-1500; assay type: biochemical, human; details: 20 μl sample + 80 μl plasma, number in label = g/dL
Method: (§7) Antithrombotic (anticoagulant) activity was evaluated according to a previously reported method. Each of thromborel S, actin and thrombin, which are reagents for Sysmex CA-1500 for analysis of PT, aPTT and TT, was mounted in Sysmex CA-1500 (Siemens Healthcare, Germany) which is an automated blood coagulation test device. According to the automated procedure of the test device, clotting time (sec) (prothrombin time (PT), activated partial thromboplastin time (aPTT) and thrombin time (TT)) was measured. A sufficient amount of a sample for each of the three analyses was about 400 uL of an 80:20 mixture of plasma and a test substance.
(§8) The isolated plasma was used in an experiment in a fresh state within 5-6 hours.
(§9) In this experiment, for the relative comparison of the measured clotting time (sec) (PT, aPTT and TT) between test groups, clotting time prolongation (%) relative to triple distilled water (purified water) that is a normal control test sample was statistically analyzed. For statistical analysis, the […] anticoagulant activities of test materials were comparatively analyzed using SPSS IBM version 21.0 by one-way ANOVA at p<0.05, and significance comparison between groups was performed by Duncan's test.
(§10) The aspirin solution was immediately used at room temperature in a light-shielded state or was cold-stored.
(§11) As a control, aspirin was used, and as a vehicle control, triple distilled water (purified water) was used instead of the sample.

plasma [4] = assay: Anticoagulant activity: activated partial thromboplastin time (aPTT), Sysmex CA-1500; assay type: biochemical, human; details: 20 μl sample + 80 μl plasma, number in label = g/dL
Method: as §7, §8, §9, §10, §11

plasma [5] = assay: Anticoagulant activity: thrombin time (TT), Sysmex CA-1500; assay type: biochemical, human; details: 20 μl sample + 80 μl plasma, number in label = g/dL
Method: as §7, §8, §9, §10, §11

NCCS(=O)(=O)O [Tau, taurine]
Body weight gain, Mean ([1]; HFD mice, sample in drinking water, 8 weeks): 9.52 g
body weight gain compared to the group administered with high-fat diet (HFD) alone ([1]; at 8 weeks after high-fat diet feeding, in words): significant reduction in body weight gain
fasting glucose level ([2]; 8 h fasted, 8 weeks of HFD, in words, comparator in the value): all lower than that of the mice administered with high-fat diet (HFD), and were similar to the blood glucose levels of normal mice
glucose control ability in GTT ([2]; glucose 1 g/kg i.p., 8 weeks of HFD, in words, comparator in the value): significantly higher than that of the group administered with HFD alone

CC(=O)Oc1ccccc1C(=O)O [Asp 7.5 mg/ml, aspirin]
PT clotting time prolongation relative to purified water, Mean (plasma [3]; Table 18): 9.90%
PT clotting time prolongation relative to purified water, Mean (plasma [3]; Table 19): 17.51%
PT clotting time prolongation relative to purified water, Mean (plasma [3]; Table 20): 26.02%
aPTT clotting time prolongation relative to purified water, Mean (plasma [4]; Table 18): 7.31%
aPTT clotting time prolongation relative to purified water, Mean (plasma [4]; Table 19): 16.28%
aPTT clotting time prolongation relative to purified water, Mean (plasma [4]; Table 20): 29.82%
TT clotting time prolongation relative to purified water, Mean (plasma [5]; Table 18): 13.59%
TT clotting time prolongation relative to purified water, Mean (plasma [5]; Table 19, values excluding one sample showing an extreme value): 20.96%
TT clotting time prolongation relative to purified water, Mean (plasma [5]; Table 20): 23.95%

O=C[C@H](O)[C@H](O)[C@H](O)CO [Rib, ribose]
TT clotting time prolongation relative to purified water, Mean (plasma [5]; Table 19, values excluding one sample showing an extreme value, listed as Rib 5.2): 23.15%
TT clotting time prolongation relative to purified water, Mean (plasma [5]; Table 19, values excluding one sample showing an extreme value, listed as Rib 10.4): 52.50%

O=C[C@@H](O)[C@@H](O)[C@H](O)[C@H](O)CO [Mann, mannose]
PT clotting time prolongation relative to purified water, Mean (plasma [3]; Table 20, listed as Mann 3.1): 2.71%
PT clotting time prolongation relative to purified water, Mean (plasma [3]; Table 20, listed as Mann 6.2): 5.96%
PT clotting time prolongation relative to purified water, Mean (plasma [3]; Table 20, listed as Mann 12.4): 13.55%
aPTT clotting time prolongation relative to purified water, Mean (plasma [4]; Table 20, listed as Mann 3.1): 0.65%
aPTT clotting time prolongation relative to purified water, Mean (plasma [4]; Table 20, listed as Mann 6.2): 1.24%
aPTT clotting time prolongation relative to purified water, Mean (plasma [4]; Table 20, listed as Mann 12.4): 7.98%
TT clotting time prolongation relative to purified water, Mean (plasma [5]; Table 20, listed as Mann 3.1): 11.67%
TT clotting time prolongation relative to purified water, Mean (plasma [5]; Table 20, listed as Mann 6.2): 22.74%
TT clotting time prolongation relative to purified water, Mean (plasma [5]; Table 20, listed as Mann 12.4): 47.87%

O=C[C@@H](O)[C@H](O)[C@H](O)CO [Ara, arabinose]
TT clotting time prolongation relative to purified water, Mean (plasma [5]; Table 18, listed as Ara 5.2): 13.40%
TT clotting time prolongation relative to purified water, Mean (plasma [5]; Table 18, listed as Ara 7.8): 22.92%

O=C(CO)[C@@H](O)[C@H](O)[C@H](O)CO [Fruc, fructose]
PT clotting time prolongation relative to purified water, Mean (plasma [3]; Table 20): 0.54%
aPTT clotting time prolongation relative to purified water, Mean (plasma [4]; Table 20): −0.20%
aPTT clotting time prolongation relative to purified water, Mean (plasma [4]; Table 20, listed as Fruc 12.4): 0.58%
TT clotting time prolongation relative to purified water, Mean (plasma [5]; Table 20, listed as Fruc 6.2): 13.19%
TT clotting time prolongation relative to purified water, Mean (plasma [5]; Table 20, listed as Fruc 12.4): 30.07%

CN(C)C(=N)N=C(N)N [Metformin, metformin]
Body weight ([1]; 1 week): 21.00 g
Body weight ([1]; 2 weeks): 22.78 g and 26.344 g
Body weight gain ([1]; 2 weeks): 3.48 g
Body weight ([1]; 3 weeks): 23.84 g
Body weight gain ([1]; 3 weeks): 4.54 g
Body weight ([1]; 4 weeks): 25.18 g
Body weight gain ([1]; 4 weeks): 5.88 g and 4.600 g
Body weight ([1]; 5 weeks): 25.72 g
Body weight gain ([1]; 5 weeks): 6.42 g
Body weight ([1]; 6 weeks): 26.34 g
Body weight gain ([1]; 6 weeks): 7.04 g
Body weight ([1]; 7 weeks): 27.52 g
Body weight gain ([1]; 7 weeks): 8.22 g
Body weight ([1]; 8 weeks): 28.20 g
Body weight ([1]; Before admis.): 19.30 g
Weight, Mean ([1]; HFD mice, sample in drinking water, 1 week): 21.00 g
Weight, Mean ([1]; HFD mice, sample in drinking water, 6 weeks): 26.34 g
Glucose level, 0 min ([2]; GTT, high-fat diet mice, 0 min (fasting, before administration), mean): 144.20 mg/dL
Glucose level, 30 min ([2]; GTT, high-fat diet mice, 30 min, mean): 386.40 mg/dL
Glucose level, 60 min ([2]; GTT, high-fat diet mice, 60 min, mean): 301.40 mg/dL
Glucose level, 90 min ([2]; GTT, high-fat diet mice, 90 min, mean): 194.40 mg/dL
Glucose level, 120 min ([2]; GTT, high-fat diet mice, 120 min, mean): 135.20 mg/dL

O=C[C@H](O)[C@@H](O)[C@H](O)[C@H](O)CO [Gluc, glucose]
PT clotting time prolongation relative to purified water, Mean (plasma [3]; Table 19, listed as Gluc 6.2): 1.69%
PT clotting time prolongation relative to purified water, Mean (plasma [3]; Table 19, listed as Gluc 12.4): 2.26%
aPTT clotting time prolongation relative to purified water, Mean (plasma [4]; Table 19, listed as Gluc 6.2): 2.22%
aPTT clotting time prolongation relative to purified water, Mean (plasma [4]; Table 19, listed as Gluc 12.4): 2.89%
TT clotting time prolongation relative to purified water, Mean (plasma [5]; Table 19, values excluding one sample showing an extreme value, listed as Gluc 6.2): 16.24%
TT clotting time prolongation relative to purified water, Mean (plasma [5]; Table 19, values excluding one sample showing an extreme value, listed as Gluc 12.4): 27.82%

O=C[C@H](O)[C@@H](O)[C@H](O)CO [Xyl, xylose]
TT clotting time prolongation relative to purified water, Mean (plasma [5]; Table 18, listed as Xyl 1.04): 2.68%
TT clotting time prolongation relative to purified water, Mean (plasma [5]; Table 18, listed as Xyl 5.2): 14.59%
TT clotting time prolongation relative to purified water, Mean (plasma [5]; Table 18, listed as Xyl 7.8): 24.41%
